# pIC50: −log10 of the molar value.
# What was measured:
# melanoma B16 cells [1] = assay: Experimental metastasis, lung colonization by melanoma B16 cells; type: in vivo, C57BL/6 mice; conditions: B16 cells pretreated 30 min; 200 micromoles per liter; 3 weeks
# Description: A suspension of 10^5 melanoma B16 cells was pretreated for 30 min with Ajoene, and the suspension (including Ajoene) was injected intravenously into male C57BL/6 mice. The mice were sacrificed 3 weeks post-injection, and their lungs subjected to microscopic examination.
# melanoma B16 cells [2] = assay: Melanoma cell implantation (subcutaneous B16); type: in vivo, C57BL/6 mice; conditions: Mus musculus, sc; B16 cells pretreated 15 min; tumor volume at 14 and 21 days
# Description: Male C57BL/6 mice were inoculated subcutaneously with 10^6 B16 cells (pretreated for 15 min with Ajoene) in their pretreatment medium, and the volume of the tumors formed was measured 14 and 21 days after the injection.
# [3] = test system: MT-2 cells / K562/VCAM-1 cells (HTLV-I); assay: Syncytium formation of HTLV-I-infected MT-2 cells with K562/VCAM-1 cells; type: cell-based; conditions: Primate T-lymphotropic virus 1, MT2, 4 h
# From the text: MT-2 cells harbor the complete genome of human T cell lymphotropic virus type 1 (HTLV-I), and they transmit the virus to susceptible uninfected cells in cocultures. The transmission manifests itself as fusion of MT-2 cells with the uninfected cells, followed by syncytium formation. K562 cells transfected with VCAM-1, a ligand of the integrin VIA-4, were used as a fusion partner for MT-2 cells. MT-2 and K562/VCAM-1 cells were washed and resuspended in complete RPMI medium at a density of 2×10^6 /ml. MT2 cells were seeded into flat-bottom 96-well microtiter plates (100 microliters per well). Serial dilutions of Ajoene or of the disintegrin kistrin (final concentration) were introduced into the wells, and the plate was incubated for 30 min prior to addition of 100 microliters of K562/VCAM-1 cells. The plates were then incubated for 4 h before scoring syncytium formation.
# GP IIb/IIIa = conditions: cited from earlier work
# WI-38 cells = type: cell-based, human
# 51Cr-labeled monocytes = assay: Monocyte recruitment to inflamed joints in rat adjuvant arthritis; type: in vivo; conditions: 50 mg/kg i.v.; for Accumulation of 51Cr-labeled Monocytes (mean ± SEM): 2 h
# Description: Rat adjuvant arthritis is characterized by integrin-mediated migration of ^51 Cr-labeled monocytes and ^111 In-labeled neutrophils into the inflamed synovium, which attains maximum between days 14 and 21 after the immunization. This model of human rheumatoid arthritis was used to assess in vivo effects of Ajoene on integrins that are known to be modulated by Ajoene in vitro.
# Adjuvant arthritis was induced in 6-8 week old inbred male Lewis rats by immunization on the lower back with 0.5 mg Mycobacterium butyricum (Difco Laboratories, Inc., Detroit, Mich.) in 0.05 ml mineral oil in two sites subcutaneously at the base of the tail. All the animals developed polyarticular arthritis between days 11 and 13 after immunization. For clinical scoring, 0-4 points were assigned per limb and tail, based on the severity of erythema, swelling, and limitation of movement (the maximal possible score was 20).
# Rat blood monocytes and neutrophils for migration studies were obtained by the hydroxyethyl starch (HES) exchange transfusion technique. The total blood volume of a donor rat was exchanged using 50 ml 6% HES solution in saline (DuPont Chemical Co., Dorval, Canada). After recovery of 40-45 ml blood/HES perfusate, the red cells were allowed to sediment (1 g) and the leukocyte-rich plasma was harvested. The leukocytes were recovered by centrifugation, resuspended in calcium-magnesium-free Tyrode's solution supplemented with 10% platelet-poor plasma (TS-PPP), and centrifuged in a discontinuous 63%/74% gradient of isotonic Percoll (Pharmacia Fine Chemicals, Dorval, Canada). The top layer, containing mononuclear cells (MN), and the cells in the 63%/74% interface, containing neutrophils, were collected, washed, and resuspended in TS-PPP. To obtain purified monocytes, the osmolality of the MN suspension was increased by adding 9% NaCl, and the suspension was centrifuged in a 40%/55%/58% Percoll gradient; monocytes were harvested at 40%/55% and […] interfaces, washed, and resuspended in TS-PPP.
# Thereafter, monocytes (10^7 cells/ml) were labeled with 75 microCurie/ml of Na2^51 CrO4 (Amersham, Oakville, Canada) at 37° C. for 30 min. Neutrophils (10^7 cells/ml) were labeled with 1 microCurie/ml of ^111 In oxine (Amersham) for 10 min. Both populations were washed to remove excess labeled material and checked for viability and purity. The viability of either cell population used in the experiments was in excess of 95% (as double-checked by Trypan blue exclusion and neutral red staining). The separation procedure described above ordinarily produced populations that contained no less than 90% monocytes and no less than 95% neutrophils. […]
# [4] = test system: MOLT-4 cells and syncytiotrophoblasts; type: cell-based, human
# Description: MOLT-4 clone 8 cells were labeled with calcein-AM, pretreated with different concentrations of Ajoene (0-200 micromoles per liter) and incubated with cultured term syncytiotrophoblast cells at 37° C. for one hour in the presence of Ajoene. Adhesion was measured directly as fluorescence units after background correction. Controls included measuring adhesion in the presence of the appropriate carrier solvent.
# In order to assess the ability of Ajoene to inhibit lymphocyte-mediated HIV infection of syncytiotrophoblasts, HIV-1LBi -infected MOLT-4 cells were added to adherent cultures of uninfected syncytiotrophoblasts in the presence and absence of Ajoene. Various additional control conditions were also established. First, some wells received filtered (0.45 micrometer) supernatant of cell-free HIV from infected cell cultures. Yet other negative controls included syncytiotrophoblasts cultured alone and syncytiotrophoblasts cultured with uninfected MOLT-4 cells. After 24 hours, the cocultures were washed to removed unbound lymphocytes, fixed, permeabilized, stained for viral core antigens (p24 and p55), and viewed under a fluorescence microscope.
smiles,measurement,setting,value
"C=CCSSC=CC[S+]([O-])CC=C (centres unmarked) [Ajoene, 4,5,9-trithiadodeca-1,6,11-triene-9-oxide]",prevention of lung colonization,melanoma B16 cells [1],prevented lung colonization
same,pIC50,melanoma B16 cells [2],5.60
same,pIC50,[3]; read-out: IC50 for syncytium formation,~6.22
same,IC100,[3]; read-out: IC100 for syncytium formation,4.3 µM
same,inhibition of platelet aggregation by inactivation of GP IIb/IIIa,"GP IIb/IIIa; Apitz-Castro et al., 1986","inhibit platelet aggregation by inactivating allosterically the platelet integrin, GP IIb/IIIa"
same,reversibility of integrin inhibition,GP IIb/IIIa,reversible
same,toxicity,WI-38 cells,no detectable toxicity
same,inhibition of monocyte recruitment to the talar joints,51Cr-labeled monocytes,~ 50%
same,Accumulation of 51Cr-labeled Monocytes (mean ± SEM),"51Cr-labeled monocytes; talar joint, P < 0.006 vs control","25,078 cpm per sample"
same,Accumulation of 51Cr-labeled Monocytes (mean ± SEM),"51Cr-labeled monocytes; tarsal joint, N.S.","10,365 cpm per sample"
same,Accumulation of 51Cr-labeled Monocytes (mean ± SEM),"51Cr-labeled monocytes; vertebral joints, P = 0.079","2,737 cpm per sample"
same,toxic effects to the cells,"[4]; HIV infection assay (lymphocyte-mediated), 200 micromoles per liter",without toxic effects to the cells
same,toxic effects on cells,"[4]; adhesion assay, up to 200 micromoles per liter",Without any toxic effects on cells
same,toxic effects in cell-free HIV infection,"[4]; cell-free HIV, 200 micromoles per liter and lower concentrations tested",without toxic effects

# From patent US6177475A, “Methods of using integrin modulators for treatment of inflammation” (priority 1997, dated 2001)
